Test results as given in patent publication US20230248745A1, “SILVER ENHANCED CANNABINOID ANTIBIOTICS” (priority 2020, published 2023).
Entries after “also recorded” stand apart in the source; their conditions may differ. Where two headings read alike, the source gives them in different places.

Tests used:
[1] = test system: MRSA (USA300); assay: Checkerboard assay, FICI of cannabinoid/silver combinations; format: cell-based, Methicillin-resistant Staphylococcus aureus
Protocol: (§1) Antibacterial growth was measured using a checkerboard analysis or qualitatively using agar plates with zones of inhibition. Viability was measured by the number of colony forming units (CFU) over time.
(§2) Using checkerboard analysis, the fractional inhibitory concentration index (FICI) was calculated for the 96-well plate test to illustrate synergy.
(§3) MRSA strain, USA300, was cultured in Luria-Bertani (LB) medium and inoculated at 37 C.
(§4) Cannabinoids or silver (expressed as the concentration of silver not the salt) were serially diluted 2-fold across the 96-well plate (Costar, catalog no. 3370) followed by addition of 100 μL of bacterial cultures with an OD600 of 0.0025. […] Wells turbidity were then analyzed using Varioskan™ microplate reader.
(§5) FICI was calculated in a checkerboard assay based on the turbidity of the wells. FIC of each agent was determined as the ratio of the minimal inhibitory concentration MIC of one agent in the presence of the other agent to the MIC of that agent alone. FICI was consequently computed as the sum of each agent's FIC.

[2] = test system: MRSA; assay: Agar plate test of CBGA with silver nanoparticles; format: cell-based, Methicillin-resistant Staphylococcus aureus
Protocol: Four LB agar plates were prepared with MRSA culture at OD600 of 0.005. (FIG. 4) Each plate contained different concentrations of CBGA (no CBGA, ½ MIC, ¼ MIC, and ⅛ MIC). All plates were then divided into quadrants, each of which received 8 μL of AgNP at different concentrations from 20 mg/L serially diluted by 2-fold down to 2.5 mg/L in 0.2 mM sodium citrate.

[3] = test system: E. coli strain K12; assay: Checkerboard assay, FICI of cannabinoid/silver combinations; format: cell-based, Escherichia coli; details: for FICI Silver Nanoparticles: Silver Nanoparticles in combination with the cannabinoid; for FICI Silver Sulfate: Silver Sulfate in combination with the cannabinoid
Protocol: as §1, §2
(§6) Escherichia coli (E. coli), strain K12, was cultured in Luria-Bertani (LB) medium and inoculated at 37 C.
as §4, §5

[4] = test system: MRSA (strain USA300); assay: Kill-curve test (CFU over time); format: cell-based, Methicillin-resistant Staphylococcus aureus; details: for combined inhibitory effects compared to ½×MIC combinations: cannabinoid ¼×MIC + AgNPs
Protocol: as §1, §3
(§7) For each test tube, 1 mL of culture at OD600 of 0.005 was added to 1 mL of LB medium containing antibiotics to reach target sub-MIC concentrations of each compound. Samples of 100 μL was extracted from each tube at the determined time stamps followed by 10-fold serial dilutions. 10 μL of each dilution was then added on the LB agar plates that were subsequently incubated for 24 hours. Colonies were inspected and results quantified as log CFU/mL.

[5] = test system: MRSA (strain USA300); assay: microbe, parasite or virus in culture; format: cell-based, Methicillin-resistant Staphylococcus aureus; details: Staphylococcus aureus; agent alone; silver expressed as silver; read-out: MIC
Description: In therapeutic applications, synergy between active ingredients occurs when an observed combined therapeutic effect is greater than the sum of therapeutic effects of individual active ingredients, or a new therapeutic effect is produced that the active ingredients could not produce alone. […] In this context, the enhancement of therapeutic effect may take the form of increased efficacy or potency and/or decreased adverse effects. The synergistic effect may be mediated in whole or in part by the pharmacokinetics and/or pharmacodynamics of the active ingredients in a subject, so that the amount and proportion of the ingredients in the formulation may be synergistic in vivo. This in vivo synergy may be effected with a formulation that includes the active ingredients in amounts and proportions that are also synergistic in in vitro assays of efficacy. As used herein, the term “synergistically effective amounts” accordingly refers to amounts that are synergistic in vivo and/or in vitro. A numeric quantification of synergy is often expressed as a fractional inhibitory concentration index (FICI), which represents the sum of the fractional inhibitory concentrations (FICs) of each drug tested, where the FIC is determined for each drug by dividing the minimum inhibitory concentration (MIC, the lowest concentration of the drug which prevents visible growth of the bacterium in a standard in vitro assay—standard colorometric assay based on resazurin) of each drug when used in combination by the MIC of each drug when used alone. In very general terms, a FICI lower or higher than 1 indicates positively correlated activity (at least additive or potentiation) or an absence of positive interactions, respectively. […] (as described and used by Joung D K et al. and Rakoliya K et al.)
as §4

[6] = test system: MRSA (strain USA 300); format: cell-based, Methicillin-resistant Staphylococcus aureus; details: for antibiotic effect of combination compared with silver nanoparticles alone: cannabinoid 2% + silver nanoparticles 2% silver w/w to PVA, films or coated catheter sections; for inhibition of bacterial growth (ring): single agent at 2% w/w to PVA, films and coated catheter sections, 24 hours
Protocol: PVA films were made by solvent casting using 33 μl drops of 2.5% PVA (88% hydrolyzed, 125 KDa molecular weight) mixed with CBC, CBG or CBGA (2% w/w to PVA). […] 3 mm sections of a urethral catheter (BARDEX® BARD®) were cut and coated with the same 33 μl volume of PVA/Silver/cannabinoid used to make films. Films and coated catheter sections were dried overnight in the dark. Five cavities were created in the LB agar plates containing MRSA (strain USA 300) at OD600 of 0.005. PVA films and catheters coated with PVA films were then placed in the cavities and moistened with 20 μL of deionized distilled water. Plates were incubated for 24 hours at 37° C.

[7] = test system: E. coli (strain K12); assay: Kill-curve test (CFU over time); format: cell-based, Escherichia coli; details: for growth inhibition: 1.25 mg/L and 0.625 mg/L (lower concentrations)
Protocol: as §1, §6, §7

[8] = test system: E. coli (strain K12); details: agent alone
Description: In therapeutic applications, synergy between active ingredients occurs when an observed combined therapeutic effect is greater than the sum of therapeutic effects of individual active ingredients, or a new therapeutic effect is produced that the active ingredients could not produce alone. […] In this context, the enhancement of therapeutic effect may take the form of increased efficacy or potency and/or decreased adverse effects. The synergistic effect may be mediated in whole or in part by the pharmacokinetics and/or pharmacodynamics of the active ingredients in a subject, so that the amount and proportion of the ingredients in the formulation may be synergistic in vivo. This in vivo synergy may be effected with a formulation that includes the active ingredients in amounts and proportions that are also synergistic in in vitro assays of efficacy. […] A numeric quantification of synergy is often expressed as a fractional inhibitory concentration index (FICI), which represents the sum of the fractional inhibitory concentrations (FICs) of each drug tested, where the FIC is determined for each drug by dividing the minimum inhibitory concentration (MIC, the lowest concentration of the drug which prevents visible growth of the bacterium in a standard in vitro assay—standard colorometric assay based on resazurin) of each drug when used in combination by the MIC of each drug when used alone. […]

[9] = Silver Nanoparticles in combination with the cannabinoid
[10] = Silver Nitrate in combination with the cannabinoid
[11] = cannabinoid with silver nanoparticles
[12] = cannabinoid with silver nitrate
[13] = cannabinoid with silver sulfate
[14] = cannabinoid ½×MIC + AgNP 1/160×MIC (0.25 mg/L)
[15] = cannabinoid ½×MIC + AgNP ⅛×MIC (5 mg/L)
[16] = 8 mg/L cannabinoid + 2.5, 1.25 and 0.625 mg/L AgSO4 (each)
[17] = cannabinoid ½×MIC + silver nitrate 1 mg/L
[18] = cannabinoid ½×MIC + silver nitrate 5 and 8 mg/L

CCCCCc1cc(O)c(C/C=C(\C)CCC=C(C)C)c(O)c1C(=O)O [CBGA, cannabigerolic acid]
FICI [1, 9]: 0.375 | FICI [1, 10]: 0.53 | interaction (interpretation of FICI) [1, 11]: synergistic | interaction (interpretation of FICI) [1, 12]: partial synergy | inhibition of MRSA growth ([2]; CBGA at ½ MIC in the agar): strong inhibition of MRSA growth in all wells | antibiotic effect ([2]; CBGA at ½ MIC in the agar + 20 mg/L silver nanoparticles): strongest antibiotic effect | inhibition of bacterial growth (darkening in the photo) ([2]; CBGA at ⅛ MIC or ¼ MIC in agar + AgNP 2.5-20 mg/L): concentration dependent darkening | FICI Silver Nanoparticles [3]: 0.73 | FICI Silver Sulfate [3]: 0.75 | interaction (interpretation of FICI) [3, 11]: potentiation | interaction (interpretation of FICI) [3, 13]: potentiation | kill-curve effect (CFU) [4]: nearly identical full bactericidal effect | time for which bactericidal effect persisted [4]: 24 h | MRSA growth by 24 hours ([4]; cannabinoid alone at ½×MIC): returned to levels approximating that of 0×MIC treatment | combined inhibitory effects compared to ½×MIC combinations [4]: weaker and less durable | kill-curve effect (CFU) [4, 14]: strong bactericidal effect | kill-curve effect (CFU) [4, 15]: full bactericidal effect | time through which bactericidal effect persisted [4, 15]: 24 h | MIC [5]: 4 µg/mL | antibiotic effect of combination compared with silver nanoparticles alone [6]: increased antibiotic effect | antibiotic effect of combination compared with silver nitrate alone ([6]; cannabinoid 2% + silver nitrate 2% silver w/w to PVA): increased antibiotic effect | inhibition of bacterial growth (ring) [6]: some level of inhibition

O=S(=O)([O-])[O-].[Ag+].[Ag+] [silver sulfate]
growth inhibition ([7]; AgSO4 alone): very little inhibitory effects | growth inhibition ([7]; AgSO4 alone, listed as AgSO4): some initial growth inhibition | bactericidal effects (net reduction in bacterial CFU) ([7]; AgSO4 alone, 2.5 mg/L): no bactericidal effects | period of inhibition of E. coli growth ([7]; AgSO4 alone, 2.5 mg/L): 6 h | total increase in bacterial CFU at 24 hours ([7]; AgSO4 alone, 2.5 mg/L): approximately 1 log | inhibitory effect on E. coli growth (summary) ([7]; silver sulfate alone at 2.5 mg/L): weak inhibitory effect | MIC [8]: 2.5 µg/mL

CCCCCc1cc(O)c2c(c1)OC(C)(CCC=C(C)C)C=C2 (stereo not shown) [CBC, cannabichromene]
time through which bacterial growth was inhibited [7]: 24 h | time through which the effect persisted [7]: 24 h | time to the reduction in E. coli CFU [7]: ≤ 6 h | time through which E. coli growth was inhibited [7, 16]: 24 h | time to the reduction in E. coli CFU [7, 16]: ≤ 4 h | inhibitory effect on E. coli growth over 24 hours ([7]; cannabinoid alone, 8 mg/L): failed to achieve any inhibitory effect | inhibition of E. coli growth over 24 hours ([7]; cannabinoid alone, 16 mg/L): failed to achieve any inhibition | inhibition of E. coli growth (summary) ([7]; cannabinoid alone, concentrations up to 16 mg/L): fail to achieve any detectable inhibition | FICI [1, 9]: 0.141 | FICI [1, 10]: 0.375 | interaction (interpretation of FICI) [1, 11]: synergistic | interaction (interpretation of FICI) [1, 12]: strongly synergistic | FICI Silver Nanoparticles [3]: 0.73 | FICI Silver Sulfate [3]: 0.63 | interaction (interpretation of FICI) [3, 11]: potentiation | interaction (interpretation of FICI) [3, 13]: potentiation | kill-curve effect (CFU) [4]: nearly identical full bactericidal effect | time for which bactericidal effect persisted [4]: 24 h | time of onset of bactericidal effect [4]: ≤ 2 h | MRSA growth by 24 hours ([4]; cannabinoid alone at ½×MIC): full bacterial growth had occurred; also recorded: returned to levels approximating that of 0×MIC treatment | duration of bacterial growth inhibition ([4]; cannabinoid alone at ½×MIC): 6 h | combined inhibitory effects compared to ½×MIC combinations [4]: weaker and less durable | duration of strong inhibition ([4]; cannabinoid ¼×MIC + silver nitrate 1 mg/L): 6 h | kill-curve effect (CFU) ([4]; cannabinoid ¼×MIC + silver nitrate 5 and 8 mg/L): Almost identical results | kill-curve effect (CFU) [4, 14]: strong bactericidal effect | kill-curve effect (CFU) [4, 15]: full bactericidal effect | time of onset of bactericidal effect [4, 15]: 2 h | time through which bactericidal effect persisted [4, 15]: 24 h | effect at 24 hours [4, 17]: strong inhibition of bacterial growth | kill-curve effect (CFU) [4, 17]: complete bactericidal effect | time for which bactericidal effect remained [4, 17]: 6 h | time of onset of bactericidal effect [4, 17]: 2 h | kill-curve effect (CFU) [4, 18]: fully bactericidal | time of onset of bactericidal effect [4, 18]: 2 h | time through which bactericidal effect remained [4, 18]: 24 h | MIC [5]: 8 µg/mL | antibiotic effect of combination compared with silver nanoparticles alone [6]: increased antibiotic effect | inhibition of bacterial growth (ring) [6]: some level of inhibition
